Experimental data from paper PMC10004634 (PLOS ONE, 2023).
Like-named read-outs stand apart in the source and are kept apart here.

How the values were obtained:
Test in all cases: biochemical
Design in all cases: KINOMEscan scanMAX competition binding, DNA-tagged kinases, qPCR read-out, percent control at 300 nM
FLT3(K663Q) = molecular target: T1, FLT3(K663Q) (Homo sapiens, UniProt P36888, K663Q)
T1 sequence (P36888 1-993 K663Q): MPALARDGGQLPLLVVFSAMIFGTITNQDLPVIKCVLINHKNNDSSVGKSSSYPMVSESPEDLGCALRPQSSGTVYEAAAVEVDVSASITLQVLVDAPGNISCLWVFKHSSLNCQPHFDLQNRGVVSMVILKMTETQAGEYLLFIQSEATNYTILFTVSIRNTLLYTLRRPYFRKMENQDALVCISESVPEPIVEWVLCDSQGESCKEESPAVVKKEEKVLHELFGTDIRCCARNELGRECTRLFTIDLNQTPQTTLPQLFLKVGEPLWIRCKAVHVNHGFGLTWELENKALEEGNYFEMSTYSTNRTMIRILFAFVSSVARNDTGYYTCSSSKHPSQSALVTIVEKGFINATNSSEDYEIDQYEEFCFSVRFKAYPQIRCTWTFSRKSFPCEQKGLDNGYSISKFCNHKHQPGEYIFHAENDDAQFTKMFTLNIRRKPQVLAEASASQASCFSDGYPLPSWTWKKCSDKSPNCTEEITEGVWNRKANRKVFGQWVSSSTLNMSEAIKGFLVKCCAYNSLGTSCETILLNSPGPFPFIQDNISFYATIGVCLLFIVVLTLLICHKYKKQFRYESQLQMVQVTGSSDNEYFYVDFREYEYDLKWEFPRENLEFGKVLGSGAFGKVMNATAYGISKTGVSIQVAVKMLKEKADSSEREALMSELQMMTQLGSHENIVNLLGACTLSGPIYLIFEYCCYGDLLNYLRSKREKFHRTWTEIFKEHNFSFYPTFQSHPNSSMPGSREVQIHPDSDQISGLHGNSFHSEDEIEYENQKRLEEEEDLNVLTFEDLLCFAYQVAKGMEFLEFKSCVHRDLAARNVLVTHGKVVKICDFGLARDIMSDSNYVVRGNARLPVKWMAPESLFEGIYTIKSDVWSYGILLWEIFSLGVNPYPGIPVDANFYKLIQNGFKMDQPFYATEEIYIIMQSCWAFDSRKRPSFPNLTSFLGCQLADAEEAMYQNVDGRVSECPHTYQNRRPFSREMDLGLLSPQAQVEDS

STK35 = STK35 (Homo sapiens, UniProt Q8TDR2)
Sequence of STK35 (Q8TDR2 whole entry): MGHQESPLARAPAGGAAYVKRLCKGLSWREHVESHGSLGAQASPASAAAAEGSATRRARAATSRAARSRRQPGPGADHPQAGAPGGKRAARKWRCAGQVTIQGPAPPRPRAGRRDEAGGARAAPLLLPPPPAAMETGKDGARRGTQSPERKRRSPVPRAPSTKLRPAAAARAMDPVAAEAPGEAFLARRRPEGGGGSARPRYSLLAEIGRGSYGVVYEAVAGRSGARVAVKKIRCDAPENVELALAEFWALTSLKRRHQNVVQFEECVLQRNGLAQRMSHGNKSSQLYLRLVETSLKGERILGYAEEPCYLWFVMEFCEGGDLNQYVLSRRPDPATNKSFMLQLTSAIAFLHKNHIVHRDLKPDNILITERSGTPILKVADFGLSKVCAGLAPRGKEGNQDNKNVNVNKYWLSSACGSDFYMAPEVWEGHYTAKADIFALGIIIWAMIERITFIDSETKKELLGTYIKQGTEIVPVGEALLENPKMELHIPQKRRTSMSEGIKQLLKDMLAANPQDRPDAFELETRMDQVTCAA

ABL2 = ABL2 (Homo sapiens, UniProt P42684)
Sequence of ABL2 (P42684 whole entry): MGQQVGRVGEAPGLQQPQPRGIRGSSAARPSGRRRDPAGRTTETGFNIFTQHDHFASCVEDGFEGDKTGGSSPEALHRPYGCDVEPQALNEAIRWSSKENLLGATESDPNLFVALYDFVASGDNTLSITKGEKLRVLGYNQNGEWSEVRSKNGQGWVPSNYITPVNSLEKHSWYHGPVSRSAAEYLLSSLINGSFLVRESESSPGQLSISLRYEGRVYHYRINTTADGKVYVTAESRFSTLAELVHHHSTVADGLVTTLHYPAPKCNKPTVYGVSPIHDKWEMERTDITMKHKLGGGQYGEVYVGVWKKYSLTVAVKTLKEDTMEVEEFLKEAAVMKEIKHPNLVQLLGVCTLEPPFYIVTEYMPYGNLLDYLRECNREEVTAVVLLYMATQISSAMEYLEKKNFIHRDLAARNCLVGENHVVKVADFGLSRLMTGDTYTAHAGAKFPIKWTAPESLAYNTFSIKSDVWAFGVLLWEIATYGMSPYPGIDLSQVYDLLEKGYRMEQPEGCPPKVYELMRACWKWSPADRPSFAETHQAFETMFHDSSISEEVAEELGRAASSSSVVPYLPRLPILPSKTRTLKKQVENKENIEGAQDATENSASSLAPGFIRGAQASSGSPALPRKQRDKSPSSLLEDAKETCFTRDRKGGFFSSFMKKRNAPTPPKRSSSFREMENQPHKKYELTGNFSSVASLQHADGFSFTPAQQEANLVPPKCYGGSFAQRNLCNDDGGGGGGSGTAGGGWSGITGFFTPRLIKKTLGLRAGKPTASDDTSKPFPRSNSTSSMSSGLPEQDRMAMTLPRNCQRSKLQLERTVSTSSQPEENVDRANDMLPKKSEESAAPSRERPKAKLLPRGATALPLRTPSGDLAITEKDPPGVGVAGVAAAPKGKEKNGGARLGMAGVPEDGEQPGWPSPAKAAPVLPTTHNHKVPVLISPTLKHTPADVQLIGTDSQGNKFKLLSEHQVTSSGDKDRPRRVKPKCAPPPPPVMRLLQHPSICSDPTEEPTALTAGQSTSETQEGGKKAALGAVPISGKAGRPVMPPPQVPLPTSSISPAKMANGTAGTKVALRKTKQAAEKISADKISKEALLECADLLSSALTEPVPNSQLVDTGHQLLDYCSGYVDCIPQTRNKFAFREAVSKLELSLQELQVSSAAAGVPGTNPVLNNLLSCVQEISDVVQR

MARK2 = MARK2 (Homo sapiens, UniProt Q7KZI7)
Sequence of MARK2 (Q7KZI7 whole entry): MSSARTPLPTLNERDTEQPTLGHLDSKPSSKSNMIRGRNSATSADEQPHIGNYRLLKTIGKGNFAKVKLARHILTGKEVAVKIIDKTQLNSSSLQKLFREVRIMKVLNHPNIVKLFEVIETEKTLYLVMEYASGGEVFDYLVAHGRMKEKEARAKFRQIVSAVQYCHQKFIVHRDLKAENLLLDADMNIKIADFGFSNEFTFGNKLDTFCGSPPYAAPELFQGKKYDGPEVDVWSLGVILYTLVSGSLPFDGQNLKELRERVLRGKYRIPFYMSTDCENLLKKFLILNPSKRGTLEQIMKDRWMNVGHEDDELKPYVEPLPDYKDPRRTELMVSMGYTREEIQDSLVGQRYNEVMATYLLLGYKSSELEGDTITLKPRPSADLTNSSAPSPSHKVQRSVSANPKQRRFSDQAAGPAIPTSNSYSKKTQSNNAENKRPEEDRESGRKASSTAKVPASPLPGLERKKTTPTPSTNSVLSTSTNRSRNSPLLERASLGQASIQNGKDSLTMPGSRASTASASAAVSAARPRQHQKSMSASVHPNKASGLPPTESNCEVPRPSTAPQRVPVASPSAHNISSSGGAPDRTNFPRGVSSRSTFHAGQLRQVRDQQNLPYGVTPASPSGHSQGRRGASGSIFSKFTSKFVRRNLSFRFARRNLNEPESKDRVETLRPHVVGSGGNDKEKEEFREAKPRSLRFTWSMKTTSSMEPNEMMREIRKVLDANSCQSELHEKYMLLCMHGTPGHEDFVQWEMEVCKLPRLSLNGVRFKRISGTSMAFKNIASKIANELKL

CLK2 = CLK2 (Homo sapiens, UniProt P49760)
Sequence of CLK2 (P49760 whole entry): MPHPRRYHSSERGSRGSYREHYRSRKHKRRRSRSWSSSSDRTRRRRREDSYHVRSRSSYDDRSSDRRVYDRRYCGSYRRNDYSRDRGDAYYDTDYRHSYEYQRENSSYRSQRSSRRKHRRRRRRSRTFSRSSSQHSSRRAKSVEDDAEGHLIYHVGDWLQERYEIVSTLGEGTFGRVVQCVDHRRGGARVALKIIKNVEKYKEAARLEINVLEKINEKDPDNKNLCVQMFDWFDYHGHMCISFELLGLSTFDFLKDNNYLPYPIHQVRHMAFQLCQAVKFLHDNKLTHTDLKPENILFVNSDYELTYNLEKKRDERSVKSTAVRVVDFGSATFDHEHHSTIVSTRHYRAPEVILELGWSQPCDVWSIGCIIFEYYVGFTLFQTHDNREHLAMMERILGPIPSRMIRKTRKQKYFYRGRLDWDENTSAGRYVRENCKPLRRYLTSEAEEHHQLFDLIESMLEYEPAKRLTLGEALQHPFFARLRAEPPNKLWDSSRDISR

TAOK1 = molecular target: T2, TAOK1 (Homo sapiens, UniProt Q7L7X3)
T2 sequence (Q7L7X3 1-1001): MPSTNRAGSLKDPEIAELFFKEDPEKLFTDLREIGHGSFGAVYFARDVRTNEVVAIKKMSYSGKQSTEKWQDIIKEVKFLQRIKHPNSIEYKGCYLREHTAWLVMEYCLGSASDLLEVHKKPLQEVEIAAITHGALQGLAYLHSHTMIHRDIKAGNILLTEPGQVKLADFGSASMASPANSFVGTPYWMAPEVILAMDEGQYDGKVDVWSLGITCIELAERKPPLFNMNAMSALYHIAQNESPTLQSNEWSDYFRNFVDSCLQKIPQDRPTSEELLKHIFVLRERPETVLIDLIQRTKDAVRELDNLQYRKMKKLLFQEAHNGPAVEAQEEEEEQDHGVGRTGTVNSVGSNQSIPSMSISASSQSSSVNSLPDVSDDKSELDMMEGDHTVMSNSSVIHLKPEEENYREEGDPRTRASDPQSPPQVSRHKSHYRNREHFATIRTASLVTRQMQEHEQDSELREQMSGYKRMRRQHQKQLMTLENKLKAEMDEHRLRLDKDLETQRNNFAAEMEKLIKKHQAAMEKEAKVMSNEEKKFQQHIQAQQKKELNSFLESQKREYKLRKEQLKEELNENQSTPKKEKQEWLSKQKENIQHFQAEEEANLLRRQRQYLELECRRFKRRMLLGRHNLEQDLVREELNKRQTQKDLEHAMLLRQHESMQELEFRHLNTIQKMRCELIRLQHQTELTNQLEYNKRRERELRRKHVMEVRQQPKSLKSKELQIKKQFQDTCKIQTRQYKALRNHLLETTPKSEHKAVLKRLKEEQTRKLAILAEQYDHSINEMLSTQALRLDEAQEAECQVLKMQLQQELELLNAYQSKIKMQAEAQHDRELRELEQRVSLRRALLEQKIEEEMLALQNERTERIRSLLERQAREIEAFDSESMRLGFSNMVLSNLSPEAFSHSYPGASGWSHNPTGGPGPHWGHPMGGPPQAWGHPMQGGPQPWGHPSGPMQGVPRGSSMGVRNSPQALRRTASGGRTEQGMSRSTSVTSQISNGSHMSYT

CAMK4 = CAMK4 (Homo sapiens, UniProt Q16566)
Sequence of CAMK4 (Q16566 whole entry, looked up): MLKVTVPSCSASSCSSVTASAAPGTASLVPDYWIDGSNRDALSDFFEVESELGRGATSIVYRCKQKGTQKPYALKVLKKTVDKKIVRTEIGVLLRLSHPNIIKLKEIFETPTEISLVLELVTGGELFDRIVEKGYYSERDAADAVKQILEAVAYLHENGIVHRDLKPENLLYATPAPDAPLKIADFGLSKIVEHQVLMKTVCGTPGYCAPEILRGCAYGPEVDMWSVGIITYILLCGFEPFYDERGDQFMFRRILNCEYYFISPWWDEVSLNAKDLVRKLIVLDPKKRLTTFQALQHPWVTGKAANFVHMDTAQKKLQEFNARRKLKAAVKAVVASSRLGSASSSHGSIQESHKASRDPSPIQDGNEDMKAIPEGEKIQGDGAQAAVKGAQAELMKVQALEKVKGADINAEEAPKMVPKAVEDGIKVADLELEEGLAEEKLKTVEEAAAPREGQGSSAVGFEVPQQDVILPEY

[1] = read-out: Percent control / Acalabrutinib
[2] = read-out: Percent control / Ibrutinib
[3] = read-out: Percent control / Tirabrutinib
[4] = read-out: Percent control / Zanubrutinib

Work on `CC#CC(=O)N1CCC[C@H]1c1nc(-c2ccc(C(=O)Nc3ccccn3)cc2)c2c(N)nccn12` [Acalabrutinib] yielded a remaining binding at 0.3 µM (FLT3(K663Q); [1]) of 87%, a remaining binding at 0.3 µM (STK35; [1]) of 96% and a remaining binding at 0.3 µM (ABL2; [1]) of 97%. For the same compound, the remaining binding at 0.3 µM (MARK2; [1]) was 91% and the remaining binding at 0.3 µM (CLK2; [1]) was 99%.
Compound `C=CC(=O)N1CCC[C@@H](n2nc(-c3ccc(Oc4ccccc4)cc3)c3c(N)ncnc32)C1` [Ibrutinib] has a remaining binding at 0.3 µM (TAOK1; [2]) of 81%, a remaining binding at 0.3 µM (FLT3(K663Q); [2]) of 45% and a remaining binding at 0.3 µM (STK35; [2]) of 86%. The remaining binding at 0.3 µM (ABL2; [2]) was 82%, the remaining binding at 0.3 µM (MARK2; [2]) was 87% and the remaining binding at 0.3 µM (CAMK4; [2]) was 96%.
`CC#CC(=O)N1CC[C@@H](n2c(=O)n(-c3ccc(Oc4ccccc4)cc3)c3c(N)ncnc32)C1` [Tirabrutinib] gave a remaining binding at 0.3 µM (TAOK1; [3]) of 82%, a remaining binding at 0.3 µM (CAMK4; [3]) of 82% and a remaining binding at 0.3 µM (CLK2; [3]) of 94%.
`C=CC(=O)N1CCC([C@@H]2CCNc3c(C(N)=O)c(-c4ccc(Oc5ccccc5)cc4)nn32)CC1` [Zanubrutinib] gave a remaining binding at 0.3 µM (TAOK1; [4]) of 63%, a remaining binding at 0.3 µM (FLT3(K663Q); [4]) of 61% and a remaining binding at 0.3 µM (STK35; [4]) of 92%. The remaining binding at 0.3 µM (ABL2; [4]) was 77%, the remaining binding at 0.3 µM (MARK2; [4]) was 90% and the remaining binding at 0.3 µM (CAMK4; [4]) was 91%. It also gave a remaining binding at 0.3 µM (CLK2; [4]) of 87%.
